Measurements: US20040063764A1, “Halogen compounds having thrombopoietin receptor agonism” (priority 2001, published 2004)

The molecules below were run against T1, human TPO receptor (Homo sapiens, UniProt P40238) (assay: Thrombopoietic activity: proliferation of TPO dependent BaF/hTPOR cell line (WST-1)). Conditions: BaF/hTPOR cells, 20 hours incubation then WST-1 for 4 hours, absorbance at 450 nm; ED50 = half concentration of the concentration showing the maximum thrombopoietic activity.
T1 construct: expressed in transfected cells; host or cells: BaF-B03 (murine IL-3 dependent pro-B cell line); the resulting line is BaF/hTPOR
T1 sequence (P40238 26-635): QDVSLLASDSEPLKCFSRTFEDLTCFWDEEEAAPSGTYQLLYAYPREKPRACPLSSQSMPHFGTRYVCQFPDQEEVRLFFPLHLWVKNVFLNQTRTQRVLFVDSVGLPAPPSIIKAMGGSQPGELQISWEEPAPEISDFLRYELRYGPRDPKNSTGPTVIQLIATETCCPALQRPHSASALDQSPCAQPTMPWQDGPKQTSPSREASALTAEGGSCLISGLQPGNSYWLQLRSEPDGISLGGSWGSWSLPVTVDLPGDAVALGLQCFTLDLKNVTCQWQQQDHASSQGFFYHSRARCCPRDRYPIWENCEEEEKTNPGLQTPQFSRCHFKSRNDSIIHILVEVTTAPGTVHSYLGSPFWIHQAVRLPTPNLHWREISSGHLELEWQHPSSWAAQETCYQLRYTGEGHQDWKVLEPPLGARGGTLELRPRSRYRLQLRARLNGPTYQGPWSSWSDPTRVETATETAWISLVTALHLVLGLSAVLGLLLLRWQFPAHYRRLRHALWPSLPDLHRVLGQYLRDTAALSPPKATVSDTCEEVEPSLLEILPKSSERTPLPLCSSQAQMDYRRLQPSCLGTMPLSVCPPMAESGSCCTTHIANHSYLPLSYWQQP
Type: cell-based
Text: The TPO dependent BaF/hTPOR cell line which was established by introducing human TPO receptor into BaF-B03 cells according to Collins et al (J. Cell. Physiol., 137:293-298 (1988)) was used to test the thrombopoietic activity of the present compound. The DNA sequences and encoded peptide sequences for human TPO receptor have been described by Vigon et al (Proc. Natl. Acad. Sci. USA, 89:5640-5644 (1992)). TPO dose not have any ability to support proliferation of interlukin-3 dependent parental cell line BaF-B03. BAF/hTPOR cells were maintained in RPMI medium and 10% WEHI-3 conditioned medium. These cells were washed once with PBS and resuspended in RPMI medium without WHEHI-3 conditioned medium and seeded into each well of 96-well microtiter plates at a density of 5×10^4 cells per well in the presence of the present compound or TPO. After incubation at 37° C. for 20 hours in the 5% CO2 incubator, WST-1 reagent (Takara Biomedicals, Japan) was added to each wells and the cells were further incubated for 4 hours. The absorbance at 450 nm was measured. Table 7 exemplifies the ED50 for tested compounds of the present invention, wherein the ED50 is the half concentration of the concentration showing the maximum thrombopoietic activity.

EC50 [nM]	SMILES
8	O=C1NC(=S)S/C1=C\c1ccc(C(=O)Nc2nc(-c3cccc(C(F)(F)F)c3F)cs2)cc1 [Compound A-1]
86	O=C1NC(=O)/C(=C/c2ccc(C(=O)Nc3nc(-c4cc(F)ccc4F)cs3)cc2)S1 [Compound A-2]
75	COc1ccc(-c2csc(NC(=O)c3ccc(/C=C4\SC(=O)NC4=O)cc3)n2)c(F)c1 [Compound A-3]
26	O=C1NC(=O)/C(=C/c2ccc(C(=O)Nc3nc(-c4ccc(C(F)(F)F)cc4F)cs3)cc2)S1 [Compound A-4]
25	O=C1NC(=O)/C(=C/c2ccc(C(=O)Nc3nc(-c4cccc(F)c4F)cs3)cc2)S1 [Compound A-5]
38	O=C1NC(=O)/C(=C/c2ccc(C(=O)Nc3nc(-c4ccc(Br)cc4F)cs3)cc2)S1 [Compound A-6]
70	Cc1ccc(-c2csc(NC(=O)c3ccc(/C=C4\SC(=O)NC4=O)cc3)n2)c(F)c1 [Compound A-7]
345	O=C1NC(=O)/C(=C/c2ccc(C(=O)Nc3nc(-c4ccc(-c5ccccc5)cc4F)cs3)cc2)S1 [Compound A-8]
76	O=C1NC(=O)/C(=C/c2ccc(C(=O)Nc3nc(-c4cc(F)c(F)c(F)c4F)cs3)cc2)S1 [Compound A-10]
25	O=C1NC(=O)/C(=C/c2ccc(C(=O)Nc3nc(-c4cccc(-c5ccccc5)c4F)cs3)cc2)S1 [Compound A-13]
10	CCCCc1cccc(-c2csc(NC(=O)c3ccc(/C=C4\SC(=O)NC4=O)cc3)n2)c1F [Compound A-28]
16	CCCc1c(Br)ccc(-c2csc(NC(=O)c3ccc(/C=C4\SC(=O)NC4=O)cc3)n2)c1F [Compound A-29]
109	O=C1NC(=O)/C(=C/c2ccc(C(=O)Nc3nc(-c4cccc(-c5cccnc5)c4F)cs3)cc2)S1 [Compound A-30]
58	CCOc1cccc(-c2csc(NC(=O)c3ccc(/C=C4\SC(=O)NC4=O)cc3)n2)c1F [Compound A-31]
9	CC(C)(C)CCc1cccc(-c2csc(NC(=O)c3ccc(/C=C4\SC(=O)NC4=O)cc3)n2)c1F [Compound A-32]
12	O=C1NC(=O)/C(=C/c2ccc(C(=O)Nc3nc(-c4cccc(CCc5ccccc5)c4F)cs3)cc2)S1 [Compound A-33]
23	O=C1NC(=O)/C(=C/c2ccc(C(=O)Nc3nc(-c4cccc(Cc5ccccc5)c4F)cs3)cc2)S1 [Compound A-34]
23	CCOCCc1cccc(-c2csc(NC(=O)c3ccc(/C=C4\SC(=O)NC4=O)cc3)n2)c1F [Compound A-35]
17	O=C1NC(=O)/C(=C/c2ccc(C(=O)Nc3nc(-c4cccc(C5CCCCC5)c4F)cs3)cc2)S1 [Compound A-37]
28	O=C1NC(=O)/C(=C/c2ccc(C(=O)Nc3nc(-c4cccc(C5CCCC5)c4F)cs3)cc2)S1 [Compound A-38]
37	COCCc1cccc(-c2csc(NC(=O)c3ccc(/C=C4\SC(=O)NC4=O)cc3)n2)c1F [Compound A-42]
69	COCCOCCc1cccc(-c2csc(NC(=O)c3ccc(/C=C4\SC(=O)NC4=O)cc3)n2)c1F [Compound A-43]
84	CCOC(=O)CCCCc1cccc(-c2csc(NC(=O)c3ccc(/C=C4\SC(=O)NC4=O)cc3)n2)c1F [Compound A-44]
74	CCOC(=O)CCCCCc1cccc(-c2csc(NC(=O)c3ccc(/C=C4\SC(=O)NC4=O)cc3)n2)c1F [Compound A-45]
13	O=C1NC(=O)/C(=C/c2ccc(C(=O)Nc3nc(-c4cccc(OC(F)(F)F)c4F)cs3)cc2)S1 [Compound A-46]
28	COC(c1cccc(-c2csc(NC(=O)c3ccc(/C=C4\SC(=O)NC4=O)cc3)n2)c1F)C(C)C (stereo not shown) [Compound A-50]
13	COC(c1cccc(-c2csc(NC(=O)c3ccc(/C=C4\SC(=O)NC4=O)cc3)n2)c1F)C1CCCCC1 (stereo not shown) [Compound A-51]

Same assay, conditions: Table 7; BaF/hTPOR cells, 20 hours incubation then WST-1 for 4 hours, absorbance at 450 nm; ED50 = half concentration of the concentration showing the maximum thrombopoietic activity

EC50 [nM]	SMILES
26	O=C1NC(=O)C(=Cc2ccc(C(=O)Nc3nc(-c4cccc(Br)c4F)cs3)cc2)S1 [Compound A-14]
73	COc1cccc(-c2csc(NC(=O)c3ccc(C=C4SC(=O)NC4=O)cc3)n2)c1F [Compound A-15]
25	Cc1cccc(-c2csc(NC(=O)c3ccc(C=C4SC(=O)NC4=O)cc3)n2)c1F [Compound A-16]
13	CCCCCc1cccc(-c2csc(NC(=O)c3ccc(C=C4SC(=O)NC4=O)cc3)n2)c1F [Compound A-17]
83	O=C1NC(=O)C(=Cc2ccc(C(=O)Nc3nc(-c4ccc(F)c(Br)c4F)cs3)cc2)S1 [Compound A-18]
69	O=C1NC(=O)C(=Cc2ccc(C(=O)Nc3nc(-c4ccc(F)c(-c5ccccc5)c4F)cs3)cc2)S1 [Compound A-19]
28	O=C1NC(=O)C(=Cc2ccc(C(=O)Nc3nc(-c4cccc(-c5ccc(F)cc5)c4F)cs3)cc2)S1 [Compound A-20]
355	O=C1NC(=O)C(=Cc2ccc(C(=O)Nc3nc(-c4ccc(C(F)(F)F)c(Br)c4F)cs3)cc2)S1 [Compound A-21]
7	CCCCCCc1cccc(-c2csc(NC(=O)c3ccc(C=C4SC(=O)NC4=O)cc3)n2)c1F [Compound A-22]
75	CCCCCc1c(F)ccc(-c2csc(NC(=O)c3ccc(C=C4SC(=O)NC4=O)cc3)n2)c1F [Compound A-23]
49	CCCCOc1cccc(-c2csc(NC(=O)c3ccc(C=C4SC(=O)NC4=O)cc3)n2)c1F [Compound A-24]
18	CCc1cccc(-c2csc(NC(=O)c3ccc(C=C4SC(=O)NC4=O)cc3)n2)c1F [Compound A-25]
7	CC(C)CCCCc1cccc(-c2csc(NC(=O)c3ccc(C=C4SC(=O)NC4=O)cc3)n2)c1F [Compound A-26]
